Measurements as given in patent US20210298305A1, “USE OF A DIFLUORO-(2-HYDROXYPROPYL)PYRIDINE COMPOUND AS A FUNGICIDE FOR CONTROL OF PHYTOPATHOGENIC FUNGI OF WHEAT” (Dow AgroSciences LLC, priority 2016, published 2021).

Experiments:
[1] = system: Puccinia recondita (PUCCRT); test: Field assessment of brown rust in spring wheat (curative tests); type: in vivo; conditions: for Test A % Control (based on AUDPC): early curative; for Test B % Control (based on AUDPC): late curative
[2] = system: Parastagonospora nodorum (LEPTNO); test: Field assessment of glume blotch in spring wheat (protectant and curative); type: in vivo; conditions: for 2 DC percent control based on AUDPC: 2 Day curative; for 3 DP percent control based on AUDPC: 3 Day protectant
Text: A fungicidal treatment containing Compound I, sprayed alone in an EC formulation […] and tank mixed with an adjuvant (Agnique BP-420, 50% w/w at 0.3% v/v), was applied at B37-39 growth stage of spring wheat ([…] variety) for protectant tests at rates of 25, 50, 100 and 150 g ai/ha. After three days, the wheat plants were artificially inoculated with Parastagonospora nodorum at B39 growth stage of wheat. Compound I was then applied two days later (same rates and formulations) to the plants at B39-41 growth stage of wheat (2 day curative test).

[3] = system: mixture of Fusarium graminearum and Fusarium culmorum isolates; type: in vivo; conditions: 100 g ai/ha, with Agnique BP-420
[4] = system: Blumeria graminis f. sp. tritici (ERYSGT); test: Field assessment of powdery mildew in Durum wheat, three trials; type: in vivo
[5] = system: Puccinia striiformis (PUCCST); test: Field assessment of yellow (stripe) rust in winter wheat, three curative trials; conditions: tank mix with Trycol 5941
Method: A fungicidal treatment containing Compound I was assessed against yellow rust of wheat (PUCCST) in three separate field trials. In each trial, all Compound I treatments were applied in a tank mix with Trycol 5941 (50% w/w) at 0.2% v/v as an adjuvant. […] The treatment was part of an experimental trial designed as a randomized complete block with four replications and a plot of approximately 1×2 m. Treatments were applied at water volume of 200 L/ha, using a backpack plot sprayer (BKPCKAIR, 1 m band width, FLATFAN F110-03 Lurmark nozzle) and pressurized at 180 kPa. Disease severity (% visual infection) was assessed 4 times on leaf 1 (L1, flag leaf, 33-47 DAA) and 5 times on leaf 2 (L2, 27-54 DAA).
The treatment was part of an experimental trial designed as a randomized complete block with four replications and a plot of approximately 2×3 m. Treatments were applied at water volume of 200 L/ha, using a backpack precision plot sprayer (BKCKENG, 2 m band width, FFA110-015 Hardi nozzle) and pressurized at 200 kPa. Disease severity (% visual infection) was assessed following application A one time on leaf 2 (23 DAA). Following application B, disease severity was assessed 4 times on leaf 1 (11-45 DAA) and 3 times on leaf 2 (11-31 DAA).
The treatment was part of an experimental trial designed as a randomized complete block with four replications and a plot of approximately 2×3 m. Treatments were applied at water volume of 150 L/ha, using a backpack precision plot sprayer ([sequence], 2 m band width, FLAT FAN FF015 nozzle). Disease severity (% visual infection) was assessed 3 times on leaf 1 (47-68 DAA) and 4 times on leaf 2 (36-68 DAA).
Disease severity (percentage of visual diseased foliage on whole plot or leaves) in all three field trials was recorded following EPPO PP1/26 guideline prescriptions. Area under the disease progress curve (AUDPC) was calculated for each plot in each of the three trials using the sets of recorded severity data. Relative AUDPC (% control based on AUDPC) was calculated as percent of the nontreated control.

[6] = 25 g ai/ha, with adjuvant Agnique BP-420
[7] = 50 g ai/ha, with adjuvant Agnique BP-420
[8] = 100 g ai/ha, with adjuvant Agnique BP-420
[9] = 150 g ai/ha, with adjuvant Agnique BP-420

## N#Cc1ccc(Oc2ccc(C(F)(F)C(O)(Cn3ncnc3S)c3ccc(F)cc3F)nc2)cc1 (stereo not shown) [Compound I, 4-((6-(2-(2,4-difluorophenyl)-1,1-difluoro-2-hydroxy-3-(5-mercapto-1H-1,2,4-triazol-1-yl)propyl)pyridin-3-yl)oxy)benzonitrile]
[1]; [6]
  Test A % Control (based on AUDPC): A (76-100)
  Test B % Control (based on AUDPC): B (51-75)
[1]; 50 g ai/ha, no adjuvant
  Test A % Control (based on AUDPC): A (76-100)
  Test B % Control (based on AUDPC): A (76-100)
[1]; [7]
  Test A % Control (based on AUDPC): A (76-100)
  Test B % Control (based on AUDPC): A (76-100)
[1]; 100 g ai/ha, no adjuvant
  Test A % Control (based on AUDPC): A (76-100)
  Test B % Control (based on AUDPC): A (76-100)
[1]; [8]
  Test A % Control (based on AUDPC): A (76-100)
  Test B % Control (based on AUDPC): A (76-100)
[1]; [9]
  Test A % Control (based on AUDPC): A (76-100)
  Test B % Control (based on AUDPC): A (76-100)
[2]; [6]
  2 DC percent control based on AUDPC: C (26-50)
  3 DP percent control based on AUDPC: C (26-50)
[2]; 50 g ai/ha, no adjuvant
  2 DC percent control based on AUDPC: C (26-50)
  3 DP percent control based on AUDPC: C (26-50)
[2]; [7]
  2 DC percent control based on AUDPC: C (26-50)
  3 DP percent control based on AUDPC: C (26-50)
[2]; [8]
  2 DC percent control based on AUDPC: B (51-75)
  3 DP percent control based on AUDPC: B (51-75)
[2]; [9]
  2 DC percent control based on AUDPC: B (51-75)
  3 DP percent control based on AUDPC: B (51-75)
[3]; sprayed on heads at flowering one day before inoculation, winter wheat
  Percent Control (calculated with FHB index using incidence and % infection): B (51-75)
[3]; winter wheat crop harvest, untreated 6.0
  Yield: 8.4 t/ha
[4]; 25 g ai/ha, EC formulation, Adjuvant X (Plurafac LF 1300 EC)
  % Control (AUDPC over 3 trials): B (51-75)
[4]; 25 g ai/ha, SC formulation, Adjuvant Y (Agnique BP420 EW with Agnique FOH TDA-9)
  % Control (AUDPC over 3 trials): B (51-75)
[4]; 50 g ai/ha, EC formulation, Adjuvant X (Plurafac LF 1300 EC)
  % Control (AUDPC over 3 trials): B (51-75)
[4]; 50 g ai/ha, SC formulation, Adjuvant Y (Agnique BP420 EW with Agnique FOH TDA-9)
  % Control (AUDPC over 3 trials): B (51-75)
[4]; 75 g ai/ha, EC formulation, Adjuvant X (Plurafac LF 1300 EC)
  % Control (AUDPC over 3 trials): A (76-100)
[4]; 75 g ai/ha, SC formulation, Adjuvant Y (Agnique BP420 EW with Agnique FOH TDA-9)
  % Control (AUDPC over 3 trials): B (51-75)
[4]; 100 g ai/ha, EC formulation, Adjuvant X (Plurafac LF 1300 EC)
  % Control (AUDPC over 3 trials): A (76-100)
[4]; 100 g ai/ha, SC formulation, Adjuvant Y (Agnique BP420 EW with Agnique FOH TDA-9)
  % Control (AUDPC over 3 trials): A (76-100)
[4]; 150 g ai/ha, EC formulation, Adjuvant X (Plurafac LF 1300 EC)
  % Control (AUDPC over 3 trials): A (76-100)
[4]; 150 g ai/ha, SC formulation, Adjuvant Y (Agnique BP420 EW with Agnique FOH TDA-9)
  % Control (AUDPC over 3 trials): A (76-100)
[5]; 50 g ai/ha
  Curative Trials (% Control), AUDPC average over three trials: B (51-75)
[5]; 100 g ai/ha
  Curative Trials (% Control), AUDPC average over three trials: B (51-75)
[5]; 150 g ai/ha
  Curative Trials (% Control), AUDPC average over three trials: B (51-75)
